Measured values from patent publication US10421761B2, “Compounds for kinase modulation, and indications therefor” (Plexxikon Inc., priority 2013, dated 2019).
Entries after “also recorded” stand apart in the source; their conditions may differ.

Tests used:
B9 cells = assay: Anchorage-independent growth assay of B9 cells in soft agar; type: cell-based, mouse; details: 3 weeks; for effect on vemurafenib-induced B9 colony formation: combination with vemurafenib, soft agar
Procedure: Anchorage-independent growth assay. 2.5×10^4 B9 cells were plated in each well of a six-well plate with a bottom layer of 1% and a top layer of 0.4% low melting agar (Sigma A4018, Dallas, Tex.) containing RPMI1640 medium with 10% FBS. For RAF inhibitor study, B9 cells grown in soft agar were treated with vemurafenib, compound P-1000 or compound A at indicated concentration or dimethyl sulfoxide (DMSO) for 3 weeks. For EGFR ligand study, B9 cells grown in soft agar were treated with AREG (R&D systems 989-AR, Minneapolis, Minn.), TGFα (R&D systems 239-A, Minneapolis, Minn.) or HB-EGF (R&D systems 259-HE, Minneapolis, Minn.) at the indicated concentrations for 3 weeks. For vemurafenib and erlotinib combination study, B9 cells grown in soft agar were treated with vemurafenib, erlotinib or a combination of the two compounds at the indicated concentrations or DMSO for 3 weeks. Anchorage-independent colonies ≥100 μm were scored using AxioVision Rel 4.8 software (CarlZeiss, Wake Forest, N.C.).
B9 cells grown in soft agar were treated with AREG, TGFα or HBEGF at the indicated concentrations for 3 weeks. Anchorage-independent colonies ≥100 μm were scored. B9 cells grown in soft agar were treated with vemurafenib or a combination of vemurafenib and erlotinib at the indicated concentrations for 3 weeks. Anchorage-independent colonies ≥100 μm were scored.

[1] = system: gastric cancer cell line MKN28; details: cited from earlier work
B9 (HRAS Q61L) cell line = assay: B9 P-ERK cell activation assay (AlphaScreen); type: cell-based, mouse; details: RAS mutant cell line B9; one hour treatment
Method in brief: (§1)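 Mouse B9 (HRAS-driven skin SCC) or human IPC-298 melanoma cells treated with an 8-point compound titration for one hour at 37° C., then lysed. ERK1/2 phosphorylation at Thr202/Tyr204 read by AlphaScreen with total-ERK and phospho-ERK antibodies.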

[2] = system: A375 (BRAF V600E) cell line; assay: A375 P-ERK inhibition assay (AlphaScreen); type: cell-based, human; details: BRAF V600E cell line A375
Method in brief: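 A375 cells treated with 8-point compound titration for 1 h at 37° C, then lysed. ERK1/2 Thr202/Tyr204 phosphorylation measured by AlphaScreen, using biotinylated total-ERK antibody on donor beads and phospho-specific antibody on acceptor beads.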

[3] = system: IPC-298 (NRAS Q61L) cell line; assay: IPC-298 P-ERK cell activation assay (AlphaScreen); type: cell-based, human; details: RAS mutant cell line IPC-298; one hour treatment
Method in brief: as §1

[4] = system: mutant BRAF V600 driven melanoma; details: cited from earlier work

With `C#Cc1cccc(Nc2ncnc3cc(OCCOC)c(OCCOC)cc23)c1` [Erlotinib] the “effect on vemurafenib-induced B9 colony formation” value (B9 cells) was “inhibited” and the “effect on vemurafenib-induced B9 colony formation” value (B9 cells; listed as erlotinib) was “antagonizes vemurafenib-induced B9 colony formation”.
In the case of `CS(=O)(=O)Nc1ccc([N+](=O)[O-])cc1OC1CCCCC1` [NS-398], the “proliferation and growth of MKN28” value [1] is given as “significantly inhibit proliferation and growth”.
With `CCCS(=O)(=O)Nc1ccc(F)c(C(=O)c2c[nH]c3ncc(Cl)cc23)c1F` [P-1000, N-[3-(5-chloro-1H-pyrrolo[2,3-b]pyridine-3-carbonyl)-2,4-difluoro-phenyl]propane-1-sulfonamide] the “B9 colony formation / anchorage-independent growth in soft agar” value (B9 cells; colonies ≥100 μm scored) was “stimulated B9 colony formation; also recorded: increased anchorage independent cell growth”.
In the case of `CC(C)(C)c1nc(-c2cccc(NS(=O)(=O)c3c(F)cccc3F)c2F)c(-c2ccnc(N)n2)s1` [dabrafenib, reference compound], the pERK activation (B9 (HRAS Q61L) cell line) is reported as “unusual bell-shaped pERK activation curve”, the pERK inhibition [2] is reported as “highly potent inhibitor” and the pERK activation [3] is reported as “unusual bell-shaped pERK activation curve”. The “tumor response in patients” value [4] was “objective tumor response”.
For `COc1ccc2c(c1)c(CC(=O)O)c(C)n2C(=O)c1ccc(Cl)cc1` [indomethacin], the “proliferation and growth of MKN28” value [1] is given as “significantly inhibit proliferation and growth”.
